Measurements as given in publication PMC9388600, “Uncovering the roles of dihydropyrimidine dehydrogenase in fatty-acid induced steatosis using human cellular models” (Scientific Reports, 2022).
Numbering of substitutions follows the chain as printed.

Columns and labels:
[1] = biological target: T1, Dihydropyrimidine dehydrogenase (DPYD) (Homo sapiens, UniProt Q12882, L310S); assay: steady-state kinetics of purified mutant enzyme, fluorometric NADPH depletion; substrate inhibition model (kcat); assay type: biochemical
T1 construct: recombinant L310S mutant DPYD, expressed from pET28a(+) in E. coli
T1 sequence (Q12882 4-1025 L310S): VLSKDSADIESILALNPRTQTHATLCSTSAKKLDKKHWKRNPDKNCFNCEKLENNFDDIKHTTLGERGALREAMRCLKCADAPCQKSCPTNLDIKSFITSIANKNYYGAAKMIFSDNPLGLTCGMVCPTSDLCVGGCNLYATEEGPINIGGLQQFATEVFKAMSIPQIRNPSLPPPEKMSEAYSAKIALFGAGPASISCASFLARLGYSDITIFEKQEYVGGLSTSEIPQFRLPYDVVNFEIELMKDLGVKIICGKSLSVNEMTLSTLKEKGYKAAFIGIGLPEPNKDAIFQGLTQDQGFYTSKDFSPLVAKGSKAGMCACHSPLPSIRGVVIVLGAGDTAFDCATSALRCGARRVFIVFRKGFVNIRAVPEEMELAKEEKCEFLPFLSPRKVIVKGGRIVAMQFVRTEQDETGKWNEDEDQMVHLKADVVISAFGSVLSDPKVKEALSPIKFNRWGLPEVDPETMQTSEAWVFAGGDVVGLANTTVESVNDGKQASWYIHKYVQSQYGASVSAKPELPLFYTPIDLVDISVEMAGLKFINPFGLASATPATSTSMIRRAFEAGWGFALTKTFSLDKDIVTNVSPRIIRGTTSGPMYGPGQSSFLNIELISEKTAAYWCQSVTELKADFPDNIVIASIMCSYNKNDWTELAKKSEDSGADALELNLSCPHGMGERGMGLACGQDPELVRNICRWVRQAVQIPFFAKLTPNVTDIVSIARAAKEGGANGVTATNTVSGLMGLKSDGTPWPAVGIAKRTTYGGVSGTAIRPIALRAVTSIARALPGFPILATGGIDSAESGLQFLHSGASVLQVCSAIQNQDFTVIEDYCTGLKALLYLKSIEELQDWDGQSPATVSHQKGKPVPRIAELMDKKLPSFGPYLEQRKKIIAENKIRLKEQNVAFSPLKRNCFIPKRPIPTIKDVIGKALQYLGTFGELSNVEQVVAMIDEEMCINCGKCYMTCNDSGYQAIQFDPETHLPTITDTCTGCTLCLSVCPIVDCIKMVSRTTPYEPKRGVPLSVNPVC

[2] = biological target: T2, Dihydropyrimidine dehydrogenase (DPYD) (Homo sapiens, UniProt Q12882); assay: steady-state kinetics of purified enzyme, fluorometric NADPH depletion; substrate inhibition model (kcat); assay type: biochemical; design: recombinant wild type DPYD, expressed from pET28a(+) in E. coli
T2 sequence (Q12882 4-1025): T1 sequence (Q12882 4-1025 L310S) with S307L
Procedure: steady-state kinetics of purified enzyme, fluorometric NADPH depletion; substrate inhibition model (kcat) on Dihydropyrimidine dehydrogenase (DPYD) | The kinetic measurements of DPYD were carried out by varying concentrations of uracil.

[3] = biological target: T2, Dihydropyrimidine dehydrogenase (DPYD); assay: uracil accumulation in media of primary human hepatocytes treated with inhibitor, LC/MS/MS (endogenous DPYD); assay type: cell-based

SMILES: O=c1cc[nH]c(=O)[nH]1 [uracil]
- steady-state kinetics of purified mutant enzyme, fluorometric NADPH depletion; s [1]: 99 ± 5 min⁻¹
- steady-state kinetics of purified enzyme, fluorometric NADPH depletion; substrat [2]: 65 ± 4 min⁻¹

SMILES: Oc1cc(O)c(Cl)cn1 [Gimeracil]
- IC50 [3]: 56 nM
